{"source": "patent US20150079206A1", "about": "“TRIGONELLINE AS A MUSCLE STIMULANT” (DSM IP ASSETS B.V., priority 2009, published 2015)", "tested_on": "Female C57B1/6 mice", "experiment": "Maximal endurance test (treadmill) in non-trained animals", "format": "in vivo, mouse", "experimental": "To test the effect of trigonelline in non-trained animals, we performed a maximal endurance test after a treatment period of three weeks.\nFemale C57B1/6 mice were delivered at a weight of 18-20 g and acclimatized to the facilities for a period of one week. At the beginning of the study the animals were randomized into two groups (10 animals per group). All mice were housed separately and had access to feed and water ad libidum. Animals were treated for three weeks by gavage with trigonelline-hydrochloride at a daily dosage of 300 mg/kg/BW and the control group received vehicle.\nFor acclimatization, animals were placed on the treadmill for 5 minutes after two weeks. The maximal endurance test was performed two day before the section of the animals.", "data": [{"smiles": "C[n+]1cccc(C(=O)[O-])c1", "note": "[Trigonelline, trigonelline monohydrate]", "values": [{"measurement": "skeletal muscle mass in untrained mice (in words)", "setting": "3 weeks of supplementation", "result": "no effect"}, {"measurement": "endurance of untrained animals (in words)", "setting": "3 weeks of supplementation, monohydrate", "result": "not influenced"}, {"measurement": "wet weight of the gastrocnemius muscle, treated vs control (in words)", "setting": "untrained mice, three weeks of supplementation, FIG. 4", "result": "equal in both groups"}]}]}
